According to publication PMC6420642, “Applications and limitations of fitting of the operational model to determine relative efficacies of agonists” (Scientific Reports, 2019):

Experiments:
[1] = molecular target: T1, M2_G15 fusion protein (M2 muscarinic receptor fused with the G15 G-protein alpha-subunit) (Homo sapiens, UniProt P08172); experiment: agonist-stimulated […]GTPγS binding, membranes; assay type: biochemical; design: gene CHRM2; clone #3, except KA from all five clones
T1 sequence (P08172 1-466): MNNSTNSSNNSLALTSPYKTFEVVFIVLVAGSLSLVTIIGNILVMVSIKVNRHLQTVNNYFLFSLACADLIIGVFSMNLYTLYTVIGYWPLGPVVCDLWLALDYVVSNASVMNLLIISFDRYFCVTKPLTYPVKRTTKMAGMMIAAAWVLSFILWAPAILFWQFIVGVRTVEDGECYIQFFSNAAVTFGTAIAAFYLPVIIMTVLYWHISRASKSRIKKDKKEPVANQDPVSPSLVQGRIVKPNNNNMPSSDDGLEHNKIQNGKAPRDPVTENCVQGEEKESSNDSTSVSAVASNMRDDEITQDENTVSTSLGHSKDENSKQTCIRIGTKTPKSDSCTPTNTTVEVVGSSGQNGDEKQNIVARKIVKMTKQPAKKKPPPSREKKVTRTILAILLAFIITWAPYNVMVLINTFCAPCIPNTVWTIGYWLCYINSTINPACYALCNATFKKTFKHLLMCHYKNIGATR
T1 sequence (P30679 1-374 partner): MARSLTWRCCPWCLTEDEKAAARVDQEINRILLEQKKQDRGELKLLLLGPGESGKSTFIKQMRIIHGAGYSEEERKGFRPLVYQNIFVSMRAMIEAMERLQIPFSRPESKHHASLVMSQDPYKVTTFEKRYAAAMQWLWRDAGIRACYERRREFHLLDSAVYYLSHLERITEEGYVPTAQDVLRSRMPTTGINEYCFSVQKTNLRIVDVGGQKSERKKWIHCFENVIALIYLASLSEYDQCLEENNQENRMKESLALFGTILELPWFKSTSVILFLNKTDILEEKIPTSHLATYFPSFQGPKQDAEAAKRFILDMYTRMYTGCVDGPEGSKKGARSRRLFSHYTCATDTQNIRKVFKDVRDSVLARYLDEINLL

[2] = molecular target: T2, M4_G15 fusion protein (M4 muscarinic receptor fused with the G15 G-protein alpha-subunit) (Homo sapiens, UniProt P08173); experiment: agonist-stimulated […]GTPγS binding, membranes; assay type: biochemical; design: gene CHRM4; M4 fused via ARATR linker to N-terminus of G15 alpha-subunit (one fused chain); clone #3, except KA from all five clones
T2 sequence (P08173 1-479): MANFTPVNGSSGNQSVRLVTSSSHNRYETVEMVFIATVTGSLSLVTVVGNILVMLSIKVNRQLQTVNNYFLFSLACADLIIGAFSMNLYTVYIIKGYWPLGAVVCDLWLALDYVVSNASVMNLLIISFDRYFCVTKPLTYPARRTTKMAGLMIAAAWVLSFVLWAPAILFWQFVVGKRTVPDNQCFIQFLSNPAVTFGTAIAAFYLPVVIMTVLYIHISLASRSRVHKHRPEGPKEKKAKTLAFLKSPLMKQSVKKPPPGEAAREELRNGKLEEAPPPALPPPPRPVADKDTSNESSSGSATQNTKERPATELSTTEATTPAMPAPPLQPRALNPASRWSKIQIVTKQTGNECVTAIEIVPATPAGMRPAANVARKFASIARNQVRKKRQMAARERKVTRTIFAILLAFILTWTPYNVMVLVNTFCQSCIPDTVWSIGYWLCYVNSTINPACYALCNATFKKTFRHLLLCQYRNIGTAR
T2 sequence (P30679 1-374 partner): T1 sequence (P30679 1-374 partner)

[3] = molecular target: T2, M4_G15 fusion protein (M4 muscarinic receptor fused with the G15 G-protein alpha-subunit); experiment: biochemical; design: gene CHRM4
[4] = molecular target: T1, M2_G15 fusion protein (M2 muscarinic receptor fused with the G15 G-protein alpha-subunit); experiment: biochemical; design: gene CHRM2

Row | Compound | pEC50 ([1]; clone #[…], agonist; […] […]GTPγS, […] GDP, […] MgCl2, […] °C) | EC50 [2] [nM] | EC50 [1] [nM] | Ki [3] [nM] | Ki [4] [nM]
1 | Clc1ccc2c(c1)N=C(N1CCNCC1)c1ccccc1N2 [NDMC] | 6.84 ± 0.03 | – | – | – | –
2 | O=C1CCCN1CC#CCN1CCCC1 [oxotremorine] | – | 17 | 18.6 | 1480 | 1660
